Results from publication PMC11497074 (RSC Advances, 2024).

Biological target: CA IX (Homo sapiens, UniProt Q16790)
Experiment: biochemical

IC50: 548 ± 35.7 nM
Compound: O=c1ccc2ccc(O[C@@H]3O[C@H](CO)[C@@H](O)[C@H](O)[C@H]3O)cc2o1 [Skimmin, skimmin]
